IC25 data for two compounds are collected here from patent publication US7666848B2, “Thiophene glycoside derivatives, processes for the preparation, medicaments comprising these compounds, and the use thereof” (Sanofi-Aventis Deutschland GmbH, priority 2002, dated 2010).

This assay concerns rabbit renal cortex brush border membrane vesicles. In words: Uptake of [14C]-labeled glucose into brush border membrane vesicles (transport assay, membrane filtration method). Format: biochemical. The settings on record: transport assay on rabbit renal cortex brush border membrane vesicles; 10 μM [14C]D glucose, 30° C., 15 seconds; β-D-gluco form.

What is called IC25 is the point of the concentration-response curve where the effect stands at 25%. A higher IC25 goes with weaker potency. Turning to `COc1ccc(Cc2sccc2OC2OC(CO)C(O)C(O)C2O)cc1` (centres unmarked) [Example 7, 2-Hydroxymethl-6-[2-(4-methoxy-benzyl)-thiophen-3-yloxy]-tetrahydro-pyran-3,4,5-triol], the IC25 amounted to 1.1 µM.

Consider `COc1ccc(Cc2sc(C(F)(F)F)cc2OC2OC(CO)C(O)C(O)C2O)cc1` (centres unmarked) [Example 54], for which the IC25 is 1.4 µM.
